Laboratory results taken from publication PMC12239085, “Silver(I) Ions Bridging Oxadiazole-2-thione Derivatives with Mitochondriotropic Agents: A Promising Strategy for Potent Anticancer Chemotherapy” (Inorganic Chemistry, 2025).
Several values for one entry are separate records, joined by “and”; a condition that tells them apart may be missing. Equal entries are not always repeated. Where two headings read alike, the source gives them in different places.

Experiments:
[1] = system: MDA-MB-231 human breast adenocarcinoma cells (hormone-independent); experiment: SRB antiproliferative assay, MDA-MB-231; assay type: cell-based; details: 48 h incubation
Procedure: (§1) Stock solutions of compounds 1a–5a and 1–5 (0.01 M) in DMSO were freshly prepared and subsequently diluted with cell culture media to appropriate concentrations for various biological experiments. These included the assessment of cell viability using the SRB assay, micronucleus testing, cell morphology studies, cell cycle arrest, AO/EB staining, and mitochondrial membrane permeabilization tests. For CT-DNA binding studies, experiments were conducted in DMSO/buffer solutions. All biological experiments were performed in triplicate or more.
(§2) Stock solutions of 1a–5a and 1–5 (0.01 M) were dissolved in DMSO and subsequently diluted with cell culture medium to the desired concentrations (0.5–30 μM). MCF-7, MDA MB-231, and MRC-5 cells were plated in 96-well flat-bottom microplates at various densities: 6000, 8000, and 2000 cells per well, respectively. The cells were incubated for 24 h at 37 °C and then exposed to 1a–5a and 1–5 for 48 h. ,–
(§3) Cytotoxicity was evaluated using the SRB colorimetric assay at λ = 568 nm, with cell survival percentages calculated relative to the untreated control cells. Detailed information on the SRB assay procedure can be found in the previous publication. ,–

MCF-7 cells [2] = experiment: Mitochondrial membrane permeabilization (MMP) assay; assay type: cell-based, human; details: MCF-7, IC50 values, 48 h
Source text: The assay relies on the fluorescence of a cationic hydrophobic dye, which accumulates in the mitochondrial membrane. Any quenching of the dye’s emitted fluorescence is attributed to the disruption of the mitochondrial membrane, resulting in the release of cytochrome C into the cytosol. ,− The percentage of fluorescence quenching in MCF-7 cells treated with compounds 1–5 is up to 20.7%, with the specific values being 20.0% (1), 20.7% (2), 2.9% (3), 5.1% (4), and 9.6% (5). […] Consequently, cell morphology, AO/EB staining, cell cycle arrest and MMP studies indicate that compounds 1–5 induce apoptosis in MCF-7 cells, primarily through direct or indirect interaction with DNA.
The MMP assay was conducted using the ″Mitochondria Membrane Potential Kit for Microplate Readers″ (MAK147), purchased from Sigma-Aldrich. MCF-7 cells were treated with 1–5 at their IC50 concentration. Fluorescence intensity was measured at an excitation wavelength of λex = 540 nm and an emission wavelength of λem = 590 nm. The experimental results included fluorescence intensities from the treated and untreated cell solutions. ,–

[3] = system: nontumorigenic human breast epithelial cell line (MCF-10A); experiment: SRB toxicity assay, MCF-10A; assay type: cell-based; details: 48 h incubation
Procedure: The toxicity of 1–5 was also evaluated against normal human fetal lung fibroblast (MRC-5) cells. Their IC50 values lie from 2.7 to 4.1 μM (Table ). The toxicity of these compounds was also evaluated against the nontumorigenic human breast epithelial cell line (MCF-10A), which is widely used as a model for normal human breast cells. They closely resemble normal human mammary epithelial cells in structure and are regulated by hormones and growth factors.
as §3

calf thymus (CT)-DNA = experiment: CT-DNA binding, UV absorption spectroscopy; details: for binding constant K b toward CT-DNA: UV absorbance at 300–310 nm, CT-DNA 10–100 μΜ; for percentage of hyperchromism: UV spectra of CT-DNA with gradual additions of complex
Procedure: In order to elucidate the mechanism of action of compounds 1–5 against MCF-7 cells, their interaction with CT-DNA was investigated using UV absorption and fluorescence spectroscopy. The UV absorption spectra of compounds 1–5 were recorded both in the presence and absence of CT-DNA (Figure S27). […] The calculated K b values for 1–5 are (10.5 ± 1.8) × 10^4 (1), (6.3 ± 0.6) × 10^4 (2), (11.3 ± 1.6) × 10^4 (3), (7.5 ± 1.0) × 10^4 (4) and (10.2 ± 1.1) × 10^4 (5) M^–1, respectively.
For the experiments of titration, UV spectra of CT-DNA in buffer solution in the absence and presence of 1–5 at r values of 0–0.13 (r = [complex]/[DNA], [DNA] = 10^–4 M) were recorded. ,− In order to determine the constant K b value, UV spectra of 1–5 in the absence and presence of CT-DNA at r values 1–0.1 ([complex] = 10 μM, [CT DNA] = 10–100 μM) were investigated.^24,26–30 The K b value is obtained from the ratio of the slope to the y-intercept in plots [DNA]/(εa–εf) versus [DNA] (e a = A obsd/[compound], e f = the extinction coefficient for the free compound). ,−

MCF-7 cells [4] = experiment: AO/EB staining detection of apoptotic cells; assay type: cell-based, human; details: 48 h; for percentage of apoptotic cells: MCF-7, IC50 values, untreated 11.7 ± 2.8%
Procedure: Apoptotic MCF-7 cells were quantified and characterized using the AO/EB staining assay under fluorescence microscopy, and the results were correlated with previously observed morphological changes in the cells. The type of cell death was evaluated after incubation with complexes 1–5 for 48 h. This assay detects nuclear changes based on differences in membrane integrity between live and apoptotic cells. The fluorescent EB dye stains red only those cells that have lost membrane integrity, while the fluorescent AO dye stains both live and dead cells green. , Untreated MCF-7 cells display green radiation emitting nuclei. The percentage of apoptosis in untreated cells was calculated as 11.7 ± 2.8%. In apoptotic cells, varying degrees of changes are observed. Early stages of apoptosis are indicated by greenish-yellow fluorescent nuclei or green-yellow fragments, while late stages are characterized by orange fluorescence or the presence of orange fragments.
The MCF-7 cells were seeded into a 24-well plate (70,000 cells per well) and cultured at 37 °C for 24 h. […] Control and treated cells were collected after 48 h, the cells were harvested, washed twice with PBS and centrifuged. Twenty-five μL of cell suspension in PBS were incubated with 50 μg/mL AO and 50 μg/mL EB solution. Then, the cells were mixed gently and 10 μL of cells in suspension was placed on a glass slide and a coverslip was placed over it. At random, 300 cells were immediately observed in a fluorescent microscope (Optika inverted fluorescence microscope) and examined at ×60 magnification. ,

MRC-5 cells = experiment: In vitro micronucleus (MN) assay; assay type: cell-based, human; details: for Percentage of MN: IC50 values, control 2.9 ± 0.2
Procedure: MRC-5 cells were seeded at a density of 2 × 10^4 cells/well onto glass coverslips, which were placed in six-well plates containing 3 mL of cell culture medium and incubated for 24 h. […] After exposure, the coverslips were washed three times with PBS and treated with a hypotonic solution (75 mM KCl) for 10 min at room temperature. The hypotonized cells were fixed with at least three changes of a 1/3 acetic acid/methanol solution. Following fixation, the coverslips were washed with cold methanol containing 1% acetic acid. Acridine orange staining (50 μg/mL) was applied for 15 min at 37 °C, after which the coverslips were rinsed three times with PBS to remove any excess stain. The number of micronucleated cells per 1000 cells was then counted. ,– ,

[5] = system: MCF-7 human breast adenocarcinoma cells (hormone-dependent); experiment: SRB antiproliferative assay, MCF-7; assay type: cell-based; details: for IC50: SRB assay, 48 h incubation; for pIC50 MCF-7: p(IC50)= -Log(IC50), Table S4, this study
Procedure: as §1, §2, §3

Structure (SMILES) | IC50 [1] [µM] | percentage of fluorescence quenching (MMP) (MCF-7 cells [2]) [%] | IC50 [3] [µM] | binding constant K b toward CT-DNA (calf thymus (CT)-DNA) | percentage of hyperchromism (calf thymus (CT)-DNA) [%] | relative rate of apoptotic MCF-7 cells in respect to untreated control (MCF-7 cells [4]) | percentage of apoptotic cells (MCF-7 cells [4]) [%] | Relative ratio of MN in respect to untreated cells (MRC-5 cells) [fold] | Relative ratio of MN in respect to untreated cells (MRC-5 cells; 48 h) | Percentage of MN (MRC-5 cells; 48 h) [%] | IC50 [5] [µM] | pIC50 MCF-7 [5]
c1ccc(-c2nnc([S][Ag]([PH](c3ccccc3)(c3ccccc3)c3ccccc3)([PH](c3ccccc3)(c3ccccc3)c3ccccc3)[PH](c3ccccc3)(c3ccccc3)c3ccccc3)o2)cc1 [compound 1] | 4.09 ± 0.17 | 20.0 | 10.6 | 10.5 ± 1.8 × 10^4 M^–1 | 4.0 | 5.13 and 5.1 | 60.0 ± 5.2 | 1.38 | 1.4 and 1.38 | 4.0 ± 0.6 | 2.03 ± 0.09 | 5.7
Fc1ccccc1-c1nnc([S][Ag]([PH](c2ccccc2)(c2ccccc2)c2ccccc2)([PH](c2ccccc2)(c2ccccc2)c2ccccc2)[PH](c2ccccc2)(c2ccccc2)c2ccccc2)o1 [compound 2] | 3.9 ± 0.14 | 20.7 | 13.9 | 6.3 ± 0.6 × 10^4 M^–1 | 7.6 | 5.8 | 64.8 ± 2.5 | 1.24 | 1.2 and 1.24 | 3.6 ± 0.5 | 2.5 ± 0.19 | 5.6
Fc1ccc(-c2nnc([S][Ag]([PH](c3ccccc3)(c3ccccc3)c3ccccc3)([PH](c3ccccc3)(c3ccccc3)c3ccccc3)[PH](c3ccccc3)(c3ccccc3)c3ccccc3)o2)cc1 [compound 3] | 2.52 ± 0.07 | 2.9 | 10.9 | 11.3 ± 1.6 × 10^4 M^–1 and 11.3 × 10^4 M^–1 | 28.0 | 4.01 and 4.0 | 46.9 ± 8.0 | 1.31 | 1.3 and 1.31 | 3.8 ± 0.2 | 2.15 ± 0.16 | 5.7
Clc1ccccc1-c1nnc([S][Ag]([PH](c2ccccc2)(c2ccccc2)c2ccccc2)([PH](c2ccccc2)(c2ccccc2)c2ccccc2)[PH](c2ccccc2)(c2ccccc2)c2ccccc2)o1 [compound 4] | 4.27 ± 0.15 | 5.1 | 16 | 7.5 ± 1.0 × 10^4 M^–1 | 8.5 | 4.03 and 4.0 | 47.2 ± 5.6 | 1.69 | 1.7 and 1.69 | 4.9 ± 0.5 | 3 ± 0.15 | 5.5
Clc1cccc(-c2nnc([S][Ag]([PH](c3ccccc3)(c3ccccc3)c3ccccc3)([PH](c3ccccc3)(c3ccccc3)c3ccccc3)[PH](c3ccccc3)(c3ccccc3)c3ccccc3)o2)c1 [compound 5] | 3.55 ± 0.19 | 9.6 | 16.1 | 10.2 ± 1.1 × 10^4 M^–1 and 10.2 × 10^4 M^–1 | 1.2 | 5.5 | 64.3 ± 8.2 |  | 2.3 and 2.34 | 6.8 ± 1.5 | 1.69 ± 0.08 | 5.8
